# Reference: US9693556B2, “Herbicidal pyridazinone derivatives” (SYNGENTA LIMITED, priority 2011, dated 2017)
# Columns and labels:
# Assay type in all cases: in vivo
# Setaria faberi (SETFA) [1] = assay: Post-emergence herbicidal glasshouse test on Setaria faberi; settings: post-emergence; 1000 g/h; evaluated after 13 days
# How it was run: (§1)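 Read-out: percentage herbicidal damage 13 days after spraying, given on a five-point scale (5=80-100%, 4=60-79%, 3=40-59%, 2=20-39%, 1=0-19%). Pots of standard soil; application at 1000 g/h, one day post-sowing for pre-emergence, eight days for post-emergence.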
# Solanum nigrum (SOLNI) [2] = assay: Pre-emergence herbicidal glasshouse test on Solanum nigrum; settings: pre-emergence; 1000 g/h; evaluated after 13 days
# How it was run: as §1
# [3] = tested on: Alopecurus myosuroides (ALOMY); assay: Post-emergence herbicidal glasshouse test on Alopecurus myosuroides; settings: post-emergence; 1000 g/h; evaluated after 13 days
# How it was run: as §1
# [4] = tested on: Ipomoea hederacea (IPOHE); assay: Post-emergence herbicidal glasshouse test on Ipomoea hederacea; settings: post-emergence; 1000 g/h; evaluated after 13 days
# How it was run: as §1
# [5] = tested on: Echinochloa crus-galli (ECHCG); assay: Post-emergence herbicidal glasshouse test on Echinochloa crus-galli; settings: post-emergence; 1000 g/h; evaluated after 13 days
# How it was run: as §1
# [6] = tested on: Ipomoea hederacea (IPOHE); assay: Pre-emergence herbicidal glasshouse test on Ipomoea hederacea; settings: pre-emergence; 1000 g/h; evaluated after 13 days
# How it was run: as §1
# Setaria faberi (SETFA) [7] = assay: Pre-emergence herbicidal glasshouse test on Setaria faberi; settings: pre-emergence; 1000 g/h; evaluated after 13 days
# How it was run: as §1
# [8] = tested on: Alopecurus myosuroides (ALOMY); assay: Pre-emergence herbicidal glasshouse test on Alopecurus myosuroides; settings: pre-emergence; 1000 g/h; evaluated after 13 days
# How it was run: as §1
# [9] = tested on: Amaranthus retoflexus (AMARE); assay: Post-emergence herbicidal glasshouse test on Amaranthus retoflexus; settings: post-emergence; 1000 g/h; evaluated after 13 days
# How it was run: as §1
# [10] = tested on: Amaranthus retoflexus (AMARE); assay: Pre-emergence herbicidal glasshouse test on Amaranthus retoflexus; settings: pre-emergence; 1000 g/h; evaluated after 13 days
# How it was run: as §1
# Solanum nigrum (SOLNI) [11] = assay: Post-emergence herbicidal glasshouse test on Solanum nigrum; settings: post-emergence; 1000 g/h; evaluated after 13 days
# How it was run: as §1
# [12] = tested on: Echinochloa crus-galli (ECHCG); assay: Pre-emergence herbicidal glasshouse test on Echinochloa crus-galli; settings: pre-emergence; 1000 g/h; evaluated after 13 days
# How it was run: as §1
structure (smiles),measurement,setting,value
CC(C)N(C)S(=O)(=O)c1nc(C(F)(F)F)ccc1-c1cnn(C)c(=O)c1O [Compound 4.017],POST Application SETFA herbicidal damage (five point scale),Setaria faberi (SETFA) [1],5 (5=80-100% damage)
same,PRE Application SOLNI herbicidal damage (five point scale),Solanum nigrum (SOLNI) [2],5 (5=80-100% damage)
same,POST Application ALOMY herbicidal damage (five point scale),[3],5 (5=80-100% damage)
same,POST Application IPOHE herbicidal damage (five point scale),[4],5 (5=80-100% damage)
same,POST Application ECHCG herbicidal damage (five point scale),[5],5 (5=80-100% damage)
same,PRE Application IPOHE herbicidal damage (five point scale),[6],5 (5=80-100% damage)
same,PRE Application SETFA herbicidal damage (five point scale),Setaria faberi (SETFA) [7],4 (4=60-79% damage)
same,PRE Application ALOMY herbicidal damage (five point scale),[8],4 (4=60-79% damage)
same,POST Application AMARE herbicidal damage (five point scale),[9],5 (5=80-100% damage)
same,PRE Application AMARE herbicidal damage (five point scale),[10],5 (5=80-100% damage)
same,POST Application SOLNI herbicidal damage (five point scale),Solanum nigrum (SOLNI) [11],5 (5=80-100% damage)
same,PRE Application ECHCG herbicidal damage (five point scale),[12],5 (5=80-100% damage)
